The values that follow come from the RepoRT retention time repository (doi:10.1038/s41586-021-03707-9).

Structures are written as SMILES.

Data set [1] can be described thus: RP, Waters ACQUITY UPLC HSS C18, 100 × 2.1 mm, 1.7 µm, 40 °C, 0.35 mL/min, estimated dead time 0.63 min; A: water + 0.1% formic acid; B: methanol + 0.1% formic acid; gradient (min/%B) 0/0.5 4/70 4.5/98 5.4/98. The following applies: stereoisomer not certain.
The nature of data set [2]: Waters ACQUITY UPLC BEH C18, 100 × 2.1 mm, 1.7 µm, 40 °C, 0.28 mL/min, estimated dead time 0.63 min; A: water + 6.5 mM ammonium hydroxide; B: methanol + 6.5 mM ammonium hydroxide; gradient (min/%B) 0/0.5 4/70 4.5/98 5.4/98. The note with it: stereoisomer not certain.

On to `Nc1ccc(C(=O)O)cc1`, for which the LC retention time is 2.41 min in data set [1] and 0.852 min in data set [2].

For `CC(C)=CCNc1ncnc2nc[nH]c12`, the LC retention time was 3.94 min in data set [1] and 4.91 min in data set [2].

In the case of `CC1C(=O)Nc2ccccc21` (stereo not drawn), the LC retention time in data set [1] was 4.43 min; in data set [2], 4.59 min.

Turning to `NCCc1ccc(O)cc1`, the LC retention time is 1.7 min in data set [1] and 2.22 min in data set [2].

As for `COc1ccc2[nH]cc(CC(=O)O)c2c1`, the results for the LC retention time in data set [1] and in data set [2] were 4.09 min and 2.72 min, respectively.

Turning to `O=C(O)Cc1cnc[nH]1`, the LC retention time in data set [1] is 0.825 min; in data set [2], 0.817 min.

Turning to `Cn1c(=O)[nH]c2ncn(C)c2c1=O`, the LC retention time in data set [1] was 2.8 min; in data set [2], 2.68 min.

As to `CC=C(C)C(=O)NCC(=O)O`, the LC retention time in data set [1] was 2.9 min; in data set [2] it was 2.16 min.

For the compound `C[n+]1cccc(C(=O)[O-])c1`, the LC retention time in data set [1] is 0.822 min; in data set [2], 0.848 min.

Turning to `CCCCCCCC(=O)OC(CC(=O)[O-])C[N+](C)(C)C` (stereo not drawn), the LC retention time was 4.65 min in data set [1] and 5.1 min in data set [2].

Consider `Cc1ccc(O)c(O)c1`, for which the values for the LC retention time in data set [1] and in data set [2] were 3.49 min and 3.87 min, respectively.

Regarding `O=C(O)C(O)Cc1c[nH]c2ccccc12` (stereo not drawn), the LC retention time was 3.93 min in data set [1] and 2.59 min in data set [2].

As for `CCOC(=O)Cc1c[nH]c2ccccc12`, the figures for the LC retention time in data set [1] and in data set [2] were 5.21 min and 5.38 min, respectively.

Regarding `CCCCCCC(O)C(=O)O` (stereo not drawn), the LC retention time in data set [1] was 5.18 min; in data set [2], 4.12 min.

As to `CCCCCCSCC(NC(=O)CCC(N)C(=O)O)C(=O)NCC(=O)O` (stereo not drawn), the LC retention time was 4.88 min in data set [1] and 4.57 min in data set [2].

For `CCCCNC(=O)NS(=O)(=O)c1ccc(C)cc1`, the results for the LC retention time in data set [1] and in data set [2] were 5.11 min and 4.37 min, respectively.

With `CCCOC(=O)c1ccc(O)cc1`, the LC retention time in data set [1] was 5.25 min; in data set [2], 5.27 min.

For the compound `CC(=O)NC1C(O)OC(CO)C(O)C1OC(C)C(=O)O` (stereo not drawn), the figures for the LC retention time in data set [1] and in data set [2] were 1.91 min and 0.854 min, respectively.

Take `CCCCCCCC(=O)NCC(=O)O`: the LC retention time in data set [1] was 5.22 min; in data set [2] it was 4.67 min.

`NC(Cc1ccc(O)c(O)c1)C(=O)O` (stereo not drawn): the figures for the LC retention time in data set [1] and in data set [2] were 1.29 min and 1.1 min, respectively.

For `CC(CN)C(=O)O` (stereo not drawn), the results for the LC retention time in data set [1] and in data set [2] were 0.839 min and 0.808 min, respectively.

As for `NC(N)=NCCCC(=O)O`, the LC retention time is 1.11 min in data set [1] and 0.91 min in data set [2].

For `c1ncc2[nH]cnc2n1`, the LC retention time is 1.69 min in data set [1] and 1.85 min in data set [2].

For `Cc1ncc(CO)c(CO)c1O`, the LC retention time is 1.54 min in data set [1] and 1.94 min in data set [2].

On to `O=C(O)Cc1ccccc1`, for which the LC retention time in data set [1] was 2.87 min; in data set [2], 1.75 min.

With `CC(=O)NC(CC(C)C)C(=O)O` (stereo not drawn), the LC retention time in data set [1] is 3.9 min; in data set [2] it was 2.73 min.

In the case of `O=c1cc[nH]c(=O)[nH]1`, the LC retention time in data set [1] is 1.18 min; in data set [2], 1.19 min.

As for `O=C(O)CNC(=O)C=Cc1ccccc1`, the LC retention time in data set [1] is 4.18 min; in data set [2] it was 3.49 min.

In the case of `O=c1[nH]cnc2c1ncn2C1OC(CO)C(O)C1O` (stereo not drawn), the LC retention time in data set [1] was 1.92 min; in data set [2], 1.9 min.

Turning to `c1ccc2[nH]ccc2c1`, the LC retention time in data set [1] is 4.7 min; in data set [2], 4.85 min.

`O=C(O)Cc1c[nH]c2ccc(O)cc12`: the results for the LC retention time in data set [1] and in data set [2] were 2.92 min and 1.72 min, respectively.

As for `CC(=O)c1ccc(O)cc1O`, the LC retention time was 4.09 min in data set [1] and 3.05 min in data set [2].

In the case of `OCC1OC(OCC2OC(O)C(O)C(O)C2O)C(O)C(O)C1O` (stereo not drawn), the LC retention time is 0.804 min in data set [1] and 0.831 min in data set [2].

With `COc1cc(CC(=O)O)ccc1O`, the LC retention time in data set [1] was 3.42 min; in data set [2] it was 1.89 min.

For `O=[N+]([O-])c1ccc(O)cc1`, the values for the LC retention time in data set [1] and in data set [2] were 4.18 min and 2.41 min, respectively.

For `CCCCCC(=O)NCC(=O)O`, the LC retention time is 4.08 min in data set [1] and 3.29 min in data set [2].

Regarding `O=C1NS(=O)(=O)c2ccccc21`, the LC retention time in data set [1] was 2.66 min; in data set [2], 2.3 min.

Turning to `O=Cc1ccc(O)cc1`, the figures for the LC retention time in data set [1] and in data set [2] were 3.39 min and 2.36 min, respectively.

As to `Nc1ncnc2c1ncn2C1OC(CO)C(O)C1O` (stereo not drawn), the LC retention time in data set [1] was 1.86 min; in data set [2], 2.48 min.

For the compound `CC(C)(C)NCC(O)c1ccc(O)c(CO)c1` (stereo not drawn), the LC retention time is 2.34 min in data set [1] and 3.38 min in data set [2].

For the compound `NC(=O)C1CCCN1C(=O)C(Cc1cnc[nH]1)NC(=O)C1CCC(=O)N1` (stereo not drawn), the LC retention time in data set [1] is 1.76 min; in data set [2], 2.36 min.

`O=C(O)c1ccc(=O)[nH]c1`: the results for the LC retention time in data set [1] and in data set [2] were 1.96 min and 0.819 min, respectively.

For `O=C(O)CNC(=O)Cc1ccccc1`, the LC retention time was 3.49 min in data set [1] and 2.69 min in data set [2].

In the case of `CN(C)CC(=O)O`, the LC retention time in data set [1] was 0.77 min; in data set [2], 0.821 min.

For `Nc1ncnc2nc[nH]c12`, the results for the LC retention time in data set [1] and in data set [2] were 1.05 min and 1.99 min, respectively.

For the compound `O=C(O)C(O)Cc1ccc(O)cc1` (stereo not drawn), the LC retention time in data set [1] is 2.87 min; in data set [2], 1.51 min.

With `NC(=O)c1ccccc1O`, the LC retention time is 3.56 min in data set [1] and 3.12 min in data set [2].

Consider `O=C(O)CCCCCCC(=O)NCC(=O)O`, for which the LC retention time in data set [1] was 3.35 min; in data set [2], 0.865 min.

On to `OCC1OC(OC2(CO)OC(CO)C(O)C2O)C(O)C(O)C1O` (stereo not drawn), for which the results for the LC retention time in data set [1] and in data set [2] were 0.86 min and 0.962 min, respectively.

Take `COC(=O)c1ccc(O)c(OC)c1`: the LC retention time in data set [1] is 4.36 min; in data set [2], 4.18 min.

With `NCCCC(=O)O`, the LC retention time in data set [1] was 0.761 min; in data set [2], 0.769 min.

Take `Cc1ccccc1C(=O)NCC(=O)O`: the LC retention time in data set [1] is 3.56 min; in data set [2], 2.74 min.

As for `Cn1c(=O)c2[nH]cnc2n(C)c1=O`, the LC retention time in data set [1] is 2.9 min; in data set [2] it was 2.75 min.

`O=C(O)CNC(=O)CCc1ccccc1`: the LC retention time was 2.34 min in data set [1] and 3.32 min in data set [2].

`NC(=O)NC1NC(=O)NC1=O` (stereo not drawn): the LC retention time in data set [1] is 0.855 min; in data set [2], 0.799 min.

For `NC(=O)NCCCC(N)C(=O)O` (stereo not drawn), the LC retention time is 0.766 min in data set [1] and 0.796 min in data set [2].

As to `O=C(O)c1cc(=O)[nH]c(=O)[nH]1`, the LC retention time in data set [1] is 1.01 min; in data set [2], 0.811 min.

As for `NCCc1c[nH]c2ccccc12`, the values for the LC retention time in data set [1] and in data set [2] were 2.82 min and 3.67 min, respectively.

As to `CC(NC(=O)Cc1c[nH]c2ccccc12)C(=O)O` (stereo not drawn), the LC retention time was 4 min in data set [1] and 3.24 min in data set [2].
